Measurements published in the supplement of paper PMC13380429.

What was measured:
Settings in all cases: 72 h
Caco-2 [1] = assay: cell viability relative to DMSO; higher = less toxic
Calu-3 [2] = assay: as above
U2OS [3] = assay: as above
Vero E6 [4] = assay: as above
Caco-2 [5] = assay: relative viability EC50 (midpoint between 100% and the lowest measured viability); higher = less toxic
Calu-3 [6] = assay: as above
U2OS [7] = assay: as above
Vero E6 [8] = assay: as above
Caco-2 [9] = assay: drug sensitivity score (DSS) for viability; higher = more toxic; extreme values may be limits of the assay
Calu-3 [10] = assay: as above
U2OS [11] = assay: as above
Vero E6 [12] = assay: as above
HepG2 [13] = assay: cell viability relative to DMSO; higher = less toxic
HepG2 [14] = assay: relative viability EC50 (midpoint between 100% and the lowest measured viability); higher = less toxic
HepG2 [15] = assay: drug sensitivity score (DSS) for viability; higher = more toxic; extreme values may be limits of the assay

Row | Structure (SMILES) | cell viability (Caco-2 [1]; 1 nM) [%] | cell viability (Caco-2 [1]; 10 nM) [%] | cell viability (Caco-2 [1]; 100 nM) [%] | cell viability (Caco-2 [1]; 1000 nM) [%] | cell viability (Caco-2 [1]; 10000 nM) [%] | cell viability (Calu-3 [2]; 1 nM) [%] | cell viability (Calu-3 [2]; 10 nM) [%] | cell viability (Calu-3 [2]; 100 nM) [%] | cell viability (Calu-3 [2]; 1000 nM) [%] | cell viability (Calu-3 [2]; 10000 nM) [%] | cell viability (U2OS [3]; 1 nM) [%] | cell viability (U2OS [3]; 10 nM) [%] | cell viability (U2OS [3]; 100 nM) [%] | cell viability (U2OS [3]; 1000 nM) [%] | cell viability (U2OS [3]; 10000 nM) [%] | cell viability (Vero E6 [4]; 1 nM) [%] | cell viability (Vero E6 [4]; 10 nM) [%] | cell viability (Vero E6 [4]; 100 nM) [%] | cell viability (Vero E6 [4]; 1000 nM) [%] | cell viability (Vero E6 [4]; 10000 nM) [%] | relative viability EC50 (Caco-2 [5]) [µM] | relative viability EC50 (Calu-3 [6]) [µM] | relative viability EC50 (U2OS [7]) [µM] | relative viability EC50 (Vero E6 [8]) [µM] | drug sensitivity score (Caco-2 [9]) | drug sensitivity score (Calu-3 [10]) | drug sensitivity score (U2OS [11]) | drug sensitivity score (Vero E6 [12]) | cell viability (HepG2 [13]; 1 nM) [%] | cell viability (HepG2 [13]; 10 nM) [%] | cell viability (HepG2 [13]; 100 nM) [%] | cell viability (HepG2 [13]; 1000 nM) [%] | cell viability (HepG2 [13]; 10000 nM) [%] | relative viability EC50 (HepG2 [14]) [µM] | drug sensitivity score (HepG2 [15])
1 | O=c1cc[nH]c(=S)[nH]1 [2-thiouracil] | 111 | 85.8 | 97.1 | 99 | 102 | 102 | 110 | 95.2 | 95.7 | 100 | 98.5 | 96.4 | 99.7 | 97.5 | 98.6 | 108 | 98.6 | 99.5 | 108 | 93.8 | > 10 | > 10 | > 10 | > 10 | 0 | 0 | 0 | 0 |  |  |  |  |  |  | 
2 | N#Cc1c(N)nc(SCC(N)=O)c(C#N)c1-c1ccc(OCC2CC2)cc1 [BAY-60-6583] | 104 | 102 | 102 | 95.9 | 99.1 |  |  |  |  |  | 106 | 100 | 101 | 98.7 | 99.4 | 99.4 | 94.7 | 93.3 | 96.6 | 93.7 | > 10 |  | > 10 | > 10 | 0 |  | 0 | 0 | 102 | 98.1 | 101 | 102 | 92.6 | > 10 | 0
3 | Cc1cc(C)c(S(=O)(=O)n2cc(C)cc2C)c(C)c1 [HJC-0350] | 95.5 | 98.2 | 93.6 | 96.6 | 93.2 | 93.7 | 99.4 | 92.9 | 103 | 96.5 | 97.4 | 98.2 | 102 | 106 | 93.4 | 97.5 | 99.5 | 98.6 | 95.5 | 96.2 | > 10 | > 10 | > 10 | > 10 | 0 | 0 | 0 | 0 |  |  |  |  |  |  | 
4 | Cc1noc(C)c1-c1cc(O)cc([C@@H](O)c2ccccc2)c1 [OXF-BD-02] | 100 | 92 | 99.3 | 92.5 | 80.3 | 98.9 | 95.2 | 99.8 | 96.8 | 70.8 | 97.2 | 94.2 | 99.7 | 86.9 | 59.3 | 102 | 103 | 94.6 | 76.9 | 17 | > 10 |  |  | 1.48 | 1.3 | 1.8 | 3.9 | 8 | 107 | 104 | 98.6 | 101 | 54.4 |  | 2.3
5 | COc1cc(OCc2cccc(-c3ccccc3)c2C)cc(OC)c1CN1CCCC[C@H]1C(=O)O [PD1-PDL-inhibitor-1] | 104 | 94.5 | 94.4 | 96.3 | 102 | 98.2 | 99.1 | 98.1 | 102 | 102 | 99.3 | 98.7 | 101 | 99 | 95.8 | 99.5 | 106 | 99.3 | 105 | 103 | > 10 | > 10 | > 10 | > 10 | 0 | 0 | 0 | 0 |  |  |  |  |  |  | 
6 | COc1cc2c(cc1F)C(c1ccccc1Cl)=Nc1c(n[nH]c1C)N2 [RG1530] | 94.8 | 90.8 | 89.1 | 81.4 | 76.1 | 111 | 100 | 98.7 | 90.5 | 52.8 | 101 | 95.8 | 99.5 | 85.8 | 68.6 | 101 | 99 | 99.6 | 92.5 | 82.1 | > 10 |  |  | > 10 | 3.5 | 4 | 3.1 | 1.1 | 98.5 | 98.5 | 93.9 | 63.2 | 77.6 |  | 7.5
